Structures can show the parent of a compound that is named as a salt. Marks after values point to notes of the source that are not given here.
Experiments:
[1] = test system: acute lung injury in mice induced by oleic acid; experiment: acute lung injury test in mouse (oleic acid-induced, histological grading of lung pathology); assay type: in vivo, KM mice
Procedure: KM mice, weighing 18-22g, with all 66 being males, were used and randomly grouped into a normal control group, a model control group, a Formula I compound group (40 mg/kg, in terms of free base), a Formula V compound group (40 mg/kg, in terms of free base), a Comparative Example group (40 mg/kg, in terms of free base), and an ambroxol hydrochloride group (40 mg/kg, in terms of free base), 11 animals in each group, and each group was administered intravenously (dissolved in normal saline by adjusting pH or directly dissolved in normal saline) once a day for 4 times, while the model control group and the normal control group were given an equivalent amount of normal saline. 30 minutes after the last administration, except for the normal control group, all other mice were administered 300 mg/kg oleic acid intravenously (prepared into the desired concentration with sterile saline containing 0.1% […] immediately before use), and the vehicle control group was given an equivalent volume of 0.1% BSA saline. The mice were sacrificed 4 hours after the last administration, and the right lobes of the lungs were removed and fixed in a 10% formaldehyde solution. After dehydration, embedding in paraffin, dissection, and staining with HE, they were observed under a microscope for pathological changes of the lung tissues. Here, the medicament used for the Comparative Example group was the 4-[(2-amino-3,5-dibromobenzyl)amino]adamantan-1-ol hydrochloride (racemic) prepared in Comparative Example 1. Table 1. Criteria for histological grading of lung injury
The above indicators are multiplied by different weighting numbers depending on the significance of the pathology (alveolar wall thickening × 1, inflammatory cell infiltration × 1, lung tissue necrosis × 3), and finally added up to obtain an overall lung pathology score. Table 2. Test results of lung pathologies of each group

[2] = test system: tracheal phenol red secretion in mice; experiment: phenol red expectoration test in mice; assay type: in vivo; settings: colorimetric measurement at 546nm; 30 mg/kg in terms of free base via tail vein 2 times in a row; x ± s, n=12; control 0.095±0.022; hydrochloride
Procedure: Experimental method: 60 mice of both sexes were used and randomly divided into a control (normal saline) group, a Formula I compound group (30 mg/kg, in terms of free base), a Formula V compound group (30 mg/kg, in terms of free base), a Comparative Example group (30 mg/kg, in terms of free base) and ambroxol hydrochloride (30 mg/kg, in terms of free base), 12 rats in each group; the respective medicaments were administered via the tail vein (dissolved in normal saline by adjusting pH or directly dissolved in normal saline) 2 times in a row. 15 minutes after the last administration to the mice, a 5% phenol red solution in normal saline (0.5g/kg) was subcutaneously injected. After 30 minutes, the mice were sacrificed and a section of the trachea was cut from below the thyroid cartilage to the trachea branch. The section was placed in a test tube containing 1 mL of normal saline, shaken and soaked for 30 minutes, and then centrifuged for 10 minutes (3000 r/min). The supernatant was transferred to another test tube, 0.1 mL of 1M NaOH solution was added, and shaken uniformly for a colorimetric measurement at 546nm. The effects of each group on the tracheal phenol red secretion in mice were statistically compared, and the experimental results obtained are shown in Table 5 below. Here, the medicament used for the Comparative Example group was the 4-[(2-amino-3,5-dibromobenzyl)amino]adamantan-1-ol hydrochloride (racemic) prepared in Comparative Example 1. Table 5. Effects on tracheal phenol red secretion in mice (x ± s)

[3] = test system: ammonia-induced coughing response in mice; experiment: cough response of mice induced by ammonia water; assay type: in vivo, KM mice
Procedure: 50 KM mice, weighing 18-22g, of both sexes were used and randomly divided into 5 groups, a model control group, a Formula I compound group (15 mg/kg, in terms of free base), a Formula V compound group (15 mg/kg, in terms of free base), a Comparative Example group (15 mg/kg, in terms of free base), and an ambroxol hydrochloride group (15 mg/kg, in terms of free base), 10 animals in each group, and were administered intravenously (dissolved in normal saline by adjusting pH or directly dissolved in normal saline). 30 minutes after the administration, the mice were put in an inverted beaker with a volume of 500ml and a cotton ball inside. Timing was started once 0.2ml of concentrated ammonia/mouse was added onto the cotton ball. The number of coughs of each animal within 3 minutes was observed and recorded. Here, the medicament used for the Comparative Example group was the 4-[(2-amino-3,5-dibromobenzyl)amino]adamantan-1-ol hydrochloride (racemic) prepared in Comparative Example 1. Table 3. Effect on ammonia-induced coughing response in mice (x ± s, n=10)

[4] = test system: expectoration amount by rat capillary tube expectoration; experiment: rat capillary sputum excretion test; assay type: in vivo, SD rats; settings: length of liquid in capillary tube within 90 minutes; 15 mg/kg in terms of free base via tail vein, 30 minutes after administration; n=10; vehicle control 22.7±4.41; hydrochloride, 15 mg/kg
Procedure: 180-220g SD rats of both sexes were used and divided into random groups, with 10 rats in each group, namely a vehicle control group, a Formula I compound group (15 mg/kg, in terms of free base), a Formula V compound group (15 mg/kg, in terms of free base), a Comparative Example group (15 mg/kg, in terms of free base) and ambroxol hydrochloride (15 mg/kg, in terms of free base). The rats were fasted and restrained from water for 12 hours before testing the amount of sputum excretion, and administered the respective medicaments via the tail vein (dissolved in normal saline by adjusting pH or directly dissolved in normal saline). 30 minutes after the administration, they were anesthetized by intraperitoneally injecting 1g/kg of a urethane solution in saline, fixed in supine position, and the trachea was separated after cutting through neck skin. A small hole was pierced by using a syringe needle between the two cartilage rings on the lower edge of the thyroid cartilage, and a capillary tube (with an inner diameter of 0.8mm, and a length of 10cm) was inserted centripetally into the trachea. Sputum was collected while adjusting the angle between the capillary tube and the trachea, and the total number of the length of liquids in the capillary tube (mm) was used to evaluate the expectoration effect. The amount of expectoration of the rats within 90 minutes was recorded. Here, the medicament used for the Comparative Example group was the 4-[(2-amino-3,5-dibromobenzyl)amino]adamantan-1-ol hydrochloride (racemic) prepared in Comparative Example 1. Table 4. Results of the effect on the expectoration amount by rat capillary tube expectoration

[5] = number of mice (11 per group) at score 3 (Moderate), 40 mg/kg in terms of free base, intravenously once a day for 4 times, oleic acid 300 mg/kg i.v.
[6] = number of mice (11 per group) at score 4 (Severe), 40 mg/kg in terms of free base, intravenously once a day for 4 times, oleic acid 300 mg/kg i.v.

Nc1c(Br)cc(Br)cc1CN[C@@H]1[C@@H]2C[C@@H]3C[C@H]1C[C@@](O)(C3)C2 [Compound of Formula V, trans-4-[(2-amino-3,5-dibromobenzyl)amino]adamantan-1-ol hydrochloride]
Overall lung pathology score ([1]; group sum, weighted (alveolar wall thickening x 1, inflammatory cell infiltration x 1, lung tissue necrosis x 3), 40 mg/kg free base i.v. once a day for 4 times, model control 81, normal control 21, hydrochloride, 40 mg/kg): 24^**▲
Alveolar wall thickening Level 0 ([1]; number of mice (11 per group) at score 0 (No pathological change), 40 mg/kg in terms of free base, intravenously once a day for 4 times, oleic acid 300 mg/kg i.v.): 1
Inflammatory cell infiltration Level 0 ([1]; number of mice (11 per group) at score 0 (No pathological change), 40 mg/kg in terms of free base, intravenously once a day for 4 times, oleic acid 300 mg/kg i.v., hydrochloride): 2
Lung tissue necrosis Level 1 ([1]; number of mice (11 per group) at score 1 (Occasional), 40 mg/kg in terms of free base, intravenously once a day for 4 times, oleic acid 300 mg/kg i.v.): 0
Lung tissue necrosis Level 2 ([1]; number of mice (11 per group) at score 2 (Mild), 40 mg/kg in terms of free base, intravenously once a day for 4 times, oleic acid 300 mg/kg i.v.): 0
Inflammatory cell infiltration Level 2 ([1]; number of mice (11 per group) at score 2 (Mild), 40 mg/kg in terms of free base, intravenously once a day for 4 times, oleic acid 300 mg/kg i.v., hydrochloride): 2
Inflammatory cell infiltration Level 3 [1, 5]: 0
Lung tissue necrosis Level 3 [1, 5]: 0
Alveolar wall thickening Level 3 ([1]; number of mice (11 per group) at score 3 (Moderate), 40 mg/kg in terms of free base, intravenously once a day for 4 times, oleic acid 300 mg/kg i.v., hydrochloride): 0
Alveolar wall thickening Level 4 [1, 6]: 0
Inflammatory cell infiltration Level 4 [1, 6]: 0
Lung tissue necrosis Level 4 [1, 6]: 0
Phenol red secretion (OD number) [2]: 0.278±0.054 OD number
reduction of the number of coughs ([3]; compared with the model control group (P<0.05 or P<0.01), 15 mg/kg free base i.v.): significantly reduce the number of coughs
Number of coughs (times) ([3]; within 3 minutes after concentrated ammonia, 15 mg/kg in terms of free base i.v., 30 minutes after administration, x ± s, n=10, model control 41.7±8.76, hydrochloride, 15 mg/kg): 19.5±6.50 times
Expectoration amount in 90min (mm) [4]: 45.1±5.39 mm

Reference: EP4310070A1, “USE OF TRANS AMANTADINE DERIVATIVE OR SALT THEREOF” (Chengdu Shibeikang Biomedical Technology Co., Ltd., priority 2021, dated 2022)
